Source: US20150366839A1, “Schisantherin A for the treatment of neurodegenerative diseases” (priority 2014, published 2015)
Read-outs that look alike come from different tables or passages of the source.

Experiments:
[1] = test system: intracellular ROS in SH-SY5Y cells; assay: 6-OHDA-induced ROS accumulation (CM-H2DCFDA); format: cell-based, Human
Description: SH-SY5Y cells seeded at 96-well plates (1×10^4 cells/well) were incubated with 5 μM fluorescent probe CM-H2DCFDA at 37° C. for 20 min after treatment with SchiA or 6-OHDA. The fluorescence intensity was determined by multi-label counter at wavelengths of excitation at 493 nm and emission at 522 nm.
The generation of excess ROS by auto-oxidation of 6-OHDA, considered to be involved in 6-OHDA-induced cellular injury (Cohen and Heikkila 1974). Therefore, to examine whether SchiA prevented the production of ROS from 6-OHDA, the accumulation of ROS was measured by fluorescent probe CM-H2DCFDA in SH-SY5Y cells. The fluorescence intensity of CM-H2DCFDA was measured after SH-SY5Y cell were pretreated with different concentrations of SchiA for 12 h and then treated with or without 400 μM 6-OHDA for 4 h. The results of FIG. 3 are expressed as a percentage of that of the control group. ###P<0.005 versus control group; *p<0.05, **p<0.01 and *** p<0.005 versus 6-OHDA group.

[2] = test system: TH-positive neurons in the SNpc; format: in vivo, C57BL/6 mice; details: for neuroprotective effect on TH-positive neurons: then MPTP
Description: Male C57BL/6 mice (20±2 g body weight, 6-8 weeks of age) were purchased from the Laboratory Animal Center of Guangdong Province and were fed six animals per cage, under a 12 h light/dark cycle with ad libitum access to food and water. Mice were handled daily and allowed 3 days to acclimate before each treatment. Six groups of mice (n=7/group, total 42 mice) were assigned for the neuroprotective study in vivo. SchiA at different concentrations (30, 100 or 300 mg/kg/day), positive control drug (Selegiline, 10 mg/kg/day) or vehicle (Tween-80/ml propylene glycol/alcohol/5% PVA, 1:1:1:17, v/v/v/v) were administered by intragastric gavage (i.g.) daily for 14 days. Then mice were injected by intraperitoneal (i.p.) with 30 mg/kg MPTP hydrochloride (Sigma-Aldrich) or physiological saline daily on days 15-19 (total 5 days). In order to allow for the full conversion of MPTP to its active metabolite MPP^+, a further 3 days of resting period followed (Levites, Weinreb et al. 2001). All animal experiments were conducted according to the ethical guidelines for animal experiment of Jinan University. The experimental protocols were approved by the Ethics Committee for Animal Experiments of Jinan University (permit number 20110810).
Three days after MPTP treatment, animals were anesthetized by i.p. administration of […] chloral hydrate (10% (w/v) dissolved in distilled water) and perfused intracardially with 100 mL PBS (0.1 mmol/L, pH 7.4) followed by 150 mL 4% paraformaldehyde (PFA) in PBS. After intracardial perfusion, brains were collected and post-fixed in 4% PFA for another 24 h at 4° C., embedded in paraffin, and cut into 6 μm coronal sections encompassing the entire SNpc. As the decrease of TH-positive neurons in response to MPTP treatment is the most prominent at medial levels of the SNpc (Hayley, Crocker et al. 2004), the inventors selected the sections from the area encompassed between −3.08 and −3.20 from bregma to perform immunohistochemisty. Immunohistochemistry of brain tissues was performed as previously described (He, Yamauchi et al. 2008; Yokoyama, Takagi et al. 2008) with minor modifications. Sections were deparaffinized in xylene and rehydrated in a graded ethanol series. […] Non-specific protein binding was blocked with 10% bovine serum in PBS (0.01 M, pH 7.4). Between each treatment, the slides were washed at least three times with deionized water for 5 minutes. […] The results were analyzed by counting the numbers of TH-positive cells at ×10 magnifications on a stereomicroscope (BX51, Olympus Corp. Japan). TH-positive cells in 6 position-matched sections of each mouse were counted manually by operator who was blinded to the drug treatment. […]

caspase-3 = assay: Caspase-3 activity assay (EnzChek kit); format: cell-based, Human; details: 60 μM 12 h, then 2 mM MPP+ 36 h
Description: Caspase-3 activity was detected using the EnzChek® Caspase-3 Assay Kit according to the manufacturer's protocol. In brief, the reaction mixture (total volume 100 μL) contained 50 μL of cell lysate and 50 μL of caspase-3 substrate (Z-DEVD-R110 substrate; the final concentration is […]) in assay buffer, and the assay was carried out in a 96-well plate. To account for non-specific hydrolysis of substrate, the samples were incubated at room temperature for approximately 30 minutes and measured the fluorescence (excitation/emission˜496/520 nm).
The inventors performed Western blot to measure the expression of active-form of caspase-3 and caspase-7 in SH-SY5Y cells. Cells were pretreated with 60 μM SchiA for 12 h and then treated with 2 mM MPP for another 36 h. Cells were lysed and examined by western blot. […] Caspase-3 activity was expressed as units per mg protein. ###p<0.005 versus control group; *p<0.05, **p<0.01 and *** p<0.005 versus MPP+ group.

P-gp = P-gp (Homo sapiens, UniProt P08183); details: Pan, Lu et al. 2006; cited from earlier work
Chain of P-gp (P08183 whole entry): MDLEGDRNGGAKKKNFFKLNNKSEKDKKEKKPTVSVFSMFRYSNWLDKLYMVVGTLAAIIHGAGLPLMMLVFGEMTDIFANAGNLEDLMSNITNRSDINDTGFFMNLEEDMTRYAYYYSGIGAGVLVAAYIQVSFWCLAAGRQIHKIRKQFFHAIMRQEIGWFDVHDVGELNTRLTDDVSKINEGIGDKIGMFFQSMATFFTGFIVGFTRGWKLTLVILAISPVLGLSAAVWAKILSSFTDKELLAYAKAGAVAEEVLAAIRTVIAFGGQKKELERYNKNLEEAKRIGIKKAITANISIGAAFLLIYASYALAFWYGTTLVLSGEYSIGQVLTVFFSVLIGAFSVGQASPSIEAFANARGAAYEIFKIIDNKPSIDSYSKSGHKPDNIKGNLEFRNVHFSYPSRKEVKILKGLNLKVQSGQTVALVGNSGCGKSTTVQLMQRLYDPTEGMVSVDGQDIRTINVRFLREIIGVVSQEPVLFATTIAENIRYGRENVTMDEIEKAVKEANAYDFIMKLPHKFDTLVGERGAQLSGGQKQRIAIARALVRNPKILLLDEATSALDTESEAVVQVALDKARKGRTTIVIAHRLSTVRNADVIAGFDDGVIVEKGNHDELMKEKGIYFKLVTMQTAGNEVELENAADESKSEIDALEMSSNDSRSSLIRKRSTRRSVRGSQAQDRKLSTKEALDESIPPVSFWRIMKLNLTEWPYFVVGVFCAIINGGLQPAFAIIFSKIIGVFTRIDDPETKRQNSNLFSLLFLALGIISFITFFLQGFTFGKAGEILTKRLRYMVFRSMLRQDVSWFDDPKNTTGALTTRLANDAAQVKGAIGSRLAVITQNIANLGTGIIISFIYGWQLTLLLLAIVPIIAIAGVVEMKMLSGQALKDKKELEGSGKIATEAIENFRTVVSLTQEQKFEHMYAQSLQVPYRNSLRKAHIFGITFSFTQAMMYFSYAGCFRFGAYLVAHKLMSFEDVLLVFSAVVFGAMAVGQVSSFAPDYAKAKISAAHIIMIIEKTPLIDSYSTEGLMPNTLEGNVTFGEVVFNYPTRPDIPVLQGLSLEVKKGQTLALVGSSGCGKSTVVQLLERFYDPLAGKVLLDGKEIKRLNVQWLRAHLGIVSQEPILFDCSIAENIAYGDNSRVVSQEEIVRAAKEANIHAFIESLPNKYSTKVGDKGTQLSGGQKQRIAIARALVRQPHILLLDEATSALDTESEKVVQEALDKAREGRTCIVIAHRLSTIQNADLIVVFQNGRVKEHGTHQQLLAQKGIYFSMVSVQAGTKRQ

COc1cc2c(c(OC)c1OC)-c1c(cc3c(c1OC)OCO3)C[C@H](C)[C@](C)(O)[C@H]2OC(=O)c1ccccc1 [SchiA, Schisantherin A]
6-OHDA-induced intracellular ROS level ([1]; 3, 6, 12, 25 and 50 μM 12 h, then 400 μM 6-OHDA 4 h): significantly reduced | intracellular ROS levels, compound alone ([1]; without 6-OHDA): no obvious effect | neuroprotective effect on TH-positive neurons ([2]; 30 mg/kg): did not exert statistical significant neuroprotective effect | neuroprotective effect on TH-positive neurons ([2]; 100 mg/kg): did not exert statistical significant neuroprotective effect | TH-positive neurons in SNpc ([2]; 300 mg/kg/day i.g. 14 days, then MPTP 30 mg/kg i.p. 5 days): 82±12 cells/section | MPP+-induced elevation of caspase-3 activity (caspase-3): dramatically suppressed | P-gp inhibition (P-gp): potent P-gp inhibitor
